# In a melting point compilation (Tetko et al.; mined from patent text by program, amines drawn as free bases though some values may be those of a salt):
row,SMILES,melting point [°C]
1,CCCCCCCCCCCCCCCCOc1cc(C(=O)OCC)cc(C(=O)OCC)c1,45
2,CC#CCCCCCCCCCCCC,36 to 37
3,COc1ccc(-c2[nH]c3cn[nH]c(=O)c3c2Cl)cc1OCC1CC1,256 to 258
4,CC(CN1CC=C(c2cccs2)CC1)N(C(=O)C1CC=CCC1)c1ccccn1 (stereo unspecified),92 to 96
5,CCCCc1nc2c(N)nc(C)c(C)c2n1CC(C)(C)NC(=O)NC1CCCCC1,128 to 130
6,O=C(CN1CCCC1=O)N1CCN(C(=O)CN2CC(c3ccc(Cl)cc3)CC2=O)CC1 (stereo unspecified),224 to 226
7,CCC(C(C)=CC(CNC(=O)C1=NNC(=O)CC1)=NO)[N+](=O)[O-] (stereo unspecified),129 to 130
8,O=C(O)C1=Cc2cc(Cl)cc(F)c2OC1C(F)(F)F (stereo unspecified),191 to 193
9,OCCn1ccc2cccnc21,52.7 to 53.3
10,ClC1=Nc2ccccc2Oc2ccccc21,53 to 55
11,CC(C)Nc1nc2cc(F)c(F)cc2n1[C@H]1O[C@@H](CO)[C@H](O)[C@@H]1O,156 to 158
12,COC(=O)C1Cc2c(n(C)c3ccccc23)CN1C(=S)SC (stereo unspecified),170 to 171
13,COC(CNC(=O)CCN1C(=O)N(C)C(=O)C1(C)C)OC,86.4
14,Cc1cc(O)c(C(=O)CCC(=O)O)cc1Cl,181 to 182
15,COCc1nc2cc3c(cc2[nH]1)NC(=O)C3(C)C,203 to 205
16,ON=C1CCC(c2ccccc2)CC1 (stereo unspecified),110 to 112
17,CCOCCn1c(CN2CCCN(C)CC2)nc2ccccc21,119 to 122
18,O=P(O)(O)C(O)(CCc1nccn1Cc1ccccc1)P(=O)(O)O,238
19,Cc1c(O)ccc(C=O)c1O,150
20,CCNS(=O)(=O)CC(=O)C=C(C)N,112 to 114

row,SMILES,melting point [°C]
1,O=C(NC1CC1)c1cc(Nc2nc(Cl)nc3ccoc23)[nH]n1,247
2,CC#CN(NC(=O)c1ccc(Cl)c(S(N)(=O)=O)c1)c1ccccc1,168 to 170
3,C=CCn1c(CCl)nc(C(C)C)c1Sc1cccc(Cl)c1,84 to 86
4,CC(=O)c1c(C)nc(C)nc1NCc1ccc(Br)cc1,78 to 80
5,CC(=O)c1ccc(/C=C(\C)c2ccc3c(c2)C(C)(C)CCC3(C)C)cc1,148 to 149
6,CC(C)C[C@H](NC(=O)[C@H](Cc1ccccc1)NCC(S)C(N)Cc1ccccc1)C(=O)O (stereo partly specified),123 to 160
7,CCOC(=O)Cc1c(CC)nn(-c2ccccc2)c1CC,129 to 130
8,COc1ccc(N2CCN(CCC3CN(C)C(=O)O3)CC2)cc1 (stereo unspecified),103 to 104
9,O=S1(=O)OCC(COC(C(F)(F)F)(C(F)(F)F)C(F)(F)F)(COC(C(F)(F)F)(C(F)(F)F)C(F)(F)F)CO1,90 to 91
10,Cn1ncc2c1CCCc1c-2cnn1C,191 to 195
11,COC(=O)CC1CCN(CCC=C(c2ccccc2)c2ccccc2)C1 (stereo unspecified),95.5 to 97.5
12,O=C(NC1CCC(CCN2CCN(c3nccc4c3OCC4)CC2)CC1)C1CCCO1 (racemic),145
13,CCCc1c(C(=O)CO)c2ccc(C(N)=O)cc2n1Cc1ccccc1Cl,231 to 234
14,CCCc1nsc(NC(=O)NC)c1C(=O)OCC,173 to 174
15,C[C@H]1C[C@@H](NC(=O)C(F)(F)F)CC(O)O1 (stereo partly specified),159 to 160
16,O=C(O)c1cc(F)c(F)c(Br)c1Cl,138 to 140
17,Nc1ncc(Sc2cccnc2)s1,140 to 142
18,CCCCCCCCc1cc2c(cc1/C(C)=C/c1ccc(C(=O)O)cc1)C(C)(C)CCS2(=O)=O,176 to 178
19,CCOC(=O)Cc1ccc(NC(=O)C(COc2ccc(Cl)cc2)NS(=O)(=O)c2ccc(F)cc2)cc1 (racemic),132 to 134
20,C=CCN(CC=C)C(=O)C(C#N)(CC)c1ccccc1 (stereo unspecified),33 to 35

row,SMILES,melting point [°C]
1,CC(C)(C)C(NC(=O)Nc1ccccc1F)NC(=O)c1ccc(Cl)cc1 (stereo unspecified),229 to 230
2,CC1=C(O)C(=O)C(C)C1 (stereo unspecified),92 to 93
3,O[C@@H]1[C@H](O)CS[C@H]1n1cnc2c(NCc3ccccc3Cl)nc(Cl)nc21,199 to 200
4,Sc1nccn1Cc1c(Cl)cccc1Cl,242 to 243
5,COC(=O)c1coc2c1C(=O)CCC2,100 to 102
6,CCCCCCCCC1(CCCCCCCC)c2cc([N+](=O)[O-])ccc2-c2ccc([N+](=O)[O-])cc21,69 to 73
7,CC(=O)NC1CCc2c(n(C)c3ccccc23)C1 (stereo unspecified),171 to 172
8,O=S(=O)(NCCCCCCCCCCCCBr)c1ccc(Cl)cc1,70 to 73
9,CCCCc1nc2c(N)nc(C)c(C)c2n1CCCCCS(N)(=O)=O,130
10,COc1cc2c(cc1OC)C(O)(c1ccccn1)CC(C)(C)CO2 (stereo unspecified),90
11,COc1cc(C)nc(NC(=O)NS(=O)(=O)c2ccccc2C(=O)Nc2nccs2)n1,185 to 187
12,CC(C)c1nccn1-c1nc(Cl)nc2nc[nH]c12,268
13,COc1cc2c(-c3cc4cc(F)cnc4[nH]3)cn(CCN3CCOCC3)c2cc1OC,205 to 210
14,CC(C)(C)OC(=O)N[C@H](C(=O)Br)c1ccccc1,108 to 109
15,NC(=S)NN=C(CCCCl)c1ccc(Cl)cc1,125 to 126
16,O=C(O)CN1C(=O)C(NC(=O)Nc2cccc3ccccc23)CCc2ccccc21 (stereo unspecified),215 to 216
17,COc1ccc(C=CC(=O)O)cc1-c1cc2c(cc1OCCCCCCCO)C(C)(C)CCC2(C)C,105 to 107
18,COc1ccccc1CC(=O)N1C[C@H]2C(c3ccccc3OC)=CCC(c3ccccc3)(c3ccccc3)[C@H]2C1,142
19,c1ccc(-c2ccccc2OCCCCCCOc2ccccc2-c2ccccc2)cc1,92 to 95

# Continued, values first:
row,melting point [°C],SMILES
1,203 to 205,CCOC(=O)c1c[nH]c(-c2ccccc2OCc2ccccc2)n1
2,111 to 112,Ic1cccc(OCc2ccc3ccccc3c2)c1
3,85 to 86,Cc1ccc(-c2ccc(Sc3ccccc3)s2)cc1
4,122 to 123,CC(C)c1ccc(N(Cc2ccc(Cl)cc2)C(=O)C2CCCc3ccccc32)cc1 (stereo unspecified)
5,190 to 195,OCc1nc2n(n1)-c1ccccc1N(c1ccc(Cl)cc1)C2
6,190 to 195,CC(C)(C)NC(=O)CN1C(=O)C(N)CC(c2ccccc2F)c2ccccc21 (stereo unspecified)
7,182 to 184,COc1cc2c(Nc3ccc(Oc4cccnc4)cc3)c(C#N)cnc2cc1OCC1CCN(C)CC1
8,84 to 85,Cc1oc(-c2ccccc2)nc1COc1ccc(CON=C(CCCCCC(=O)O)c2ccccc2)cc1
9,131 to 132,CC(O)c1nnc(-c2ccc3occ(-c4cccc(OC(F)(F)F)c4)c3c2)o1 (stereo unspecified)
10,109 to 110,C[Si](C)(C1C=Cc2c(-c3ccccc3)cccc21)C1C=Cc2c(-c3ccccc3)cccc21 (stereo unspecified)
11,147 to 148,CCOC(=O)c1c(CCl)nc2cc(OC)c(OC)cc2c1-c1ccc(F)cc1
12,159 to 162,COc1ccc(-c2cc(=Nc3c(C)cc(C)cc3C)n(C)c(Cl)n2)cc1OC
13,139 to 141,O=C(NC(=O)N(SN1CCCCC1=O)c1ccc(Oc2ccc(C(F)(F)F)cc2Cl)cc1F)c1c(F)cccc1F
14,> 330,COc1cc(O)nc2cc(-c3cc(C)c(O)c(C)c3)[nH]c(=O)c12
15,105 to 110,CC(C)(C)OC(=O)Nc1ccc(-c2ccoc2)cc1[N+](=O)[O-]
16,121 to 122,CCOC(=O)c1c(NC=CC(=O)C(C)C)sc(-c2ccc(OC)cc2)c1C
17,112 to 114,COc1ccc(NN=C(Sc2ccc(Cl)cc2)C(C)=O)cc1
18,164,Clc1cccnc1-c1ccc2[nH]nc(Nc3ccccn3)c2c1
19,131 to 133,CC(C)(C)OC(=O)Nc1ccc(-c2ccccc2F)cc1[N+](=O)[O-]
20,184 to 185,CC#CC1(C)OC(=O)Nc2ccc(-c3cccc(Cl)c3)cc21 (stereo unspecified)
21,84 to 86,O=Cc1c(-c2ccccc2Cl)ccc2c1OCO2

row,melting point [°C],SMILES
1,132 to 134,Cn1ccnc1C(=O)Nc1ccc(-n2nc(C(F)(F)F)cc2C2CC2)cc1
2,133 to 134,COc1ccccc1C(NCC(=O)Nc1c(C(C)C)cccc1C(C)C)c1ccccc1 (stereo unspecified)
3,230 to 232,COc1cccc(CNC(=O)c2nc3cccc(COCc4ccc(C(=O)O)cc4)c3c(=O)[nH]2)c1
4,314,CC(=O)Nc1ccc(-c2cn(-c3nc(-c4ccc(C(F)(F)F)cc4)cc(C(F)(F)F)n3)cn2)cn1
5,97 to 98,Cc1nc(CCOc2ccc([N+](=O)[O-])cc2)c(C)o1
6,80 to 82,COc1ccc(OC2COc3ccc(OCc4cc(OC)ccn4)cc3C2O)cc1 (stereo unspecified)
7,150,CCOC(=O)C1(c2ccc(Cl)cc2)OCC(c2ccc(F)cc2)(c2ccc(F)cc2)CO1
8,168 to 169,CC(C)C[C@H](N[C@H](CCN1C(=O)c2cc3ccccc3cc2C1=O)C(=O)OC(C)(C)C)C(=O)O
9,226,O=C(Nc1nccs1)c1c(C(F)F)nc2c(C(F)(F)F)cccc2c1O
10,141 to 143,Nc1ccc(OCC2CN(c3ccccn3)C(=O)O2)cc1 (stereo unspecified)
11,> 268,Oc1ccc(-c2ncc3ncc(Nc4ncccn4)cc3n2)cc1
12,177 to 179,CC(C)c1cc(N(C)C)cc2c1C(=O)N(COC(=O)c1c(Cl)cccc1Cl)S2(=O)=O
13,104 to 105,O=[N+]([O-])c1ccccc1NCc1cc(F)cc(F)c1
14,78 to 81,COc1ccc(C(O)(Cc2ccncc2)c2ccccc2)c2c1OC(C)(C)C2 (stereo unspecified)
15,194 to 195,Oc1ccc(-c2ccc(-c3ccc(F)cc3)nc2-c2ccc(OCCN3CCCCC3)cc2)cc1
16,211,O=C(O)c1c(CNS(=O)(=O)c2cccc(Cl)c2)nn(-c2ccc(Cl)cc2Cl)c1-c1ccc(Cl)cc1
17,191 to 193,COC(=O)C1=Cc2cc(-c3ccc(OC)cc3)ccc2S(=O)(=O)CC1
18,87 to 88,O=C(O)CCCCCOc1cc(-c2ccccc2)cc(-c2ccccc2)n1
19,132 to 134,Cn1cc(-c2cccc(C(F)(F)F)c2)c(=O)o1
20,138 to 141,COc1ccc(-c2nc(CNC(C)=O)sc2-c2ccc(OC)cc2)cc1
21,265 to 270,COCCOc1cc2c(Nc3ccc(Sc4nccn4C)c(Cl)c3)c(C#N)cnc2cc1F
